US11739098B2 (BRISTOL-MYERS SQUIBB COMPANY, priority 2017, dated 2023)

Assays:
Type in all cases: cell-based
[1] = biological target: T1, human TLR8 (Homo sapiens, UniProt Q9NR97); assay: TLR8 inhibition reporter assay (HEK-Blue cells, SEAP reporter, R848 stimulation); settings: HEK-Blue cells overexpressing human TLR8, SEAP reporter, R848 15.9 μM
T1 construct: host or cells: HEK-Blue cells (HEK293-derived reporter line)
T1 sequence (Q9NR97 27-1041): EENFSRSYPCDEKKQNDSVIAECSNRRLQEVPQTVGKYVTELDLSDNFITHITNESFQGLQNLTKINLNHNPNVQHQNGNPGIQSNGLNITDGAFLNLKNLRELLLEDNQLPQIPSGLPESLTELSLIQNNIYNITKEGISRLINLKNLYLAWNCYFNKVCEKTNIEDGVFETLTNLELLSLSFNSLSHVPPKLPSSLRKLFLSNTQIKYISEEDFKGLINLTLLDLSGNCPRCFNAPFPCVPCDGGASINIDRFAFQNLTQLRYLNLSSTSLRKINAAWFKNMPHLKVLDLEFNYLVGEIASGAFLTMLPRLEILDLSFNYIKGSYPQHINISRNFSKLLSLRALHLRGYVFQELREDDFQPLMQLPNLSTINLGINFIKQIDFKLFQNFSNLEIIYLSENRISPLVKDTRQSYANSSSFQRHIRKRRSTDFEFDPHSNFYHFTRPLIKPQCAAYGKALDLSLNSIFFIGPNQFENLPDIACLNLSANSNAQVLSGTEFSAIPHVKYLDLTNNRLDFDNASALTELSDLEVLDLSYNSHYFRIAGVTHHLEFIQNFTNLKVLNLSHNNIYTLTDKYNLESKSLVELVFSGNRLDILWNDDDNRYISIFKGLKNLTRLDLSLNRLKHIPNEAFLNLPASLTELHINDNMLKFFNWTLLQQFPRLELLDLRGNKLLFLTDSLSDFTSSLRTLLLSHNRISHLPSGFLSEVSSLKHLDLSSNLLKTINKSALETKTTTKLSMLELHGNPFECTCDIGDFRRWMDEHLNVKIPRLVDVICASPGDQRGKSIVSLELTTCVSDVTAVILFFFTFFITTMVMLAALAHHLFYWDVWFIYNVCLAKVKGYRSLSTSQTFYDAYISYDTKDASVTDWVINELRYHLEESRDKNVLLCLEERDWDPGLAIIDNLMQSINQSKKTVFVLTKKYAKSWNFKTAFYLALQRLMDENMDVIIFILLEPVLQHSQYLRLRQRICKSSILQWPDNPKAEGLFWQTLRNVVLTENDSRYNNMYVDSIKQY
Summary of the method: (§1)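 HEK-Blue cells overexpressing the receptor, with NF-κB/AP-1-driven SEAP, were pre-treated 30 min at room temperature with compound (0.05 nM–50 μM), then stimulated with gardiquimod 7.5 μM (TLR7), R848 15.9 μM (TLR8) or ODN2006 5 nM (TLR9). SEAP was read after 22 h at 37 °C as percent inhibition.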

[2] = biological target: T2, human TLR7 (Homo sapiens, UniProt Q9NYK1); assay: TLR7 inhibition reporter assay (HEK-Blue cells, SEAP reporter, gardiquimod stimulation); settings: HEK-Blue cells overexpressing human TLR7, SEAP reporter, gardiquimod 7.5 μM
T2 construct: host or cells: HEK-Blue cells (HEK293-derived reporter line)
T2 sequence (Q9NYK1 27-1049): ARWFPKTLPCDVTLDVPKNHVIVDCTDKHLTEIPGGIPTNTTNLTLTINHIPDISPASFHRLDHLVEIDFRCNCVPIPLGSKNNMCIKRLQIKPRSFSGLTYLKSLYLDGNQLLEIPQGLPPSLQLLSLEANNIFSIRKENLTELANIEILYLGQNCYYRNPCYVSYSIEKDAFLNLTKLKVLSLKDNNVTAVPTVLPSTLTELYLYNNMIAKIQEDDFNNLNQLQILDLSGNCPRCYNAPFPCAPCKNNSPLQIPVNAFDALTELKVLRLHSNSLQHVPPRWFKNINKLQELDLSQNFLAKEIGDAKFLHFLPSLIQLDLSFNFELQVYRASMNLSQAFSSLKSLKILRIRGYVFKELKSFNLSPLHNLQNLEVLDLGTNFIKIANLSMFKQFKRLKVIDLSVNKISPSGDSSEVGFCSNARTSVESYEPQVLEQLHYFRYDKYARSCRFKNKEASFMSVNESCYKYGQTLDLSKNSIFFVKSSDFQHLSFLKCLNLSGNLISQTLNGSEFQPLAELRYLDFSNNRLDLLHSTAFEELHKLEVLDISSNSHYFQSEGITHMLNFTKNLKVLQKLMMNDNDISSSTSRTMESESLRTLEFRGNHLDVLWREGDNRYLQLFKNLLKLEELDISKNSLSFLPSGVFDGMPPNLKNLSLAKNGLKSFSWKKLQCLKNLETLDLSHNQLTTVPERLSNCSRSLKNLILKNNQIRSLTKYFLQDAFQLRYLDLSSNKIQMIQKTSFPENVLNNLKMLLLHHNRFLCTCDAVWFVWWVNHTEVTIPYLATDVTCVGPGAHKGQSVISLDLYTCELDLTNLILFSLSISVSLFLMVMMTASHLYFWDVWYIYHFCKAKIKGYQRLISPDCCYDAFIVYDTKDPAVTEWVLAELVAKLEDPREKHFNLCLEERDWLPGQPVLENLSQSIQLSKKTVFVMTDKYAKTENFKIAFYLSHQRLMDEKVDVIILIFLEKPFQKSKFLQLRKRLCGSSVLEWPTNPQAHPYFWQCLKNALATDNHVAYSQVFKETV
Summary of the method: as §1

[3] = biological target: T3, human TLR9 (Homo sapiens, UniProt Q9NR96); assay: TLR9 inhibition reporter assay (HEK-Blue cells, SEAP reporter, ODN2006 stimulation); settings: HEK-Blue cells overexpressing human TLR9, SEAP reporter, ODN2006 5 nM
T3 construct: host or cells: HEK-Blue cells (HEK293-derived reporter line)
T3 sequence (Q9NR96 26-1032): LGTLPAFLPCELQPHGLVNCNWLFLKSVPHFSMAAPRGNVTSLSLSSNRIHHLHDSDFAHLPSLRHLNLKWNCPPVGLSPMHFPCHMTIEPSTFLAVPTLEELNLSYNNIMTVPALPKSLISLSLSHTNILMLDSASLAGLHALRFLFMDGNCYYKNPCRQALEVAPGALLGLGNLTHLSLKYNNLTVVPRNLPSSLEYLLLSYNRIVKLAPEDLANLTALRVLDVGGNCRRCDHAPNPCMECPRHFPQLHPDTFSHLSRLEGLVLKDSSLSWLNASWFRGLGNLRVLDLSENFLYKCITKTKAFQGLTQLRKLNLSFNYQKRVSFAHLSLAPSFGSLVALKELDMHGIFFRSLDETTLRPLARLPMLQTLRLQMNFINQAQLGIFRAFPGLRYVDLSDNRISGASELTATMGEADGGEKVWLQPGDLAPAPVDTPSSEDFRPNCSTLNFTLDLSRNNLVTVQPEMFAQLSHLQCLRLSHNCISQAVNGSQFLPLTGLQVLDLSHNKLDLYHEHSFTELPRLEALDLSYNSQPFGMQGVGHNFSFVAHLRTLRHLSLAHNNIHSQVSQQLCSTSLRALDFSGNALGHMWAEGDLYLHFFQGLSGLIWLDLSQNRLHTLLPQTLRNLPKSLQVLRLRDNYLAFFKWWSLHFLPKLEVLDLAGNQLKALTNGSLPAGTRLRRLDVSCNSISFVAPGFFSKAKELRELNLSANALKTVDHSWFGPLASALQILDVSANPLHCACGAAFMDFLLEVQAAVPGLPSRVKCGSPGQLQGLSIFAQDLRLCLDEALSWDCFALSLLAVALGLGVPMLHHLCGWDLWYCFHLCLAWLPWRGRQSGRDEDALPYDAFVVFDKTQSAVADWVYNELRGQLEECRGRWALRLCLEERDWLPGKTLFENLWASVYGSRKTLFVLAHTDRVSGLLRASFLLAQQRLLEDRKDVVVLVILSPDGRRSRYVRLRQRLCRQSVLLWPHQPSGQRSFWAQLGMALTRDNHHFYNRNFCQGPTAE
Summary of the method: as §1

IC50 [1] [nM]	IC50 [2] [nM]	IC50 [3] [nM]	SMILES
< 100	< 100	100 to 1000	Cc1cc(-c2[nH]c3ccc(C4CCN(CC#N)CC4)cc3c2C(C)C)cc2cnnn12 [Example 964, 2-(4-(3-isopropyl-2-(7-methyl-[1,2,3]triazolo[1,5-a]pyridin-5-yl)-1H-indol-5-yl)piperidin-1-yl)acetonitrile]
< 100	< 100	100 to 1000	Cc1cc(-c2[nH]c3ccc(C4CCNCC4)cc3c2C(C)C)cn2nnnc12 [Example 75, 6-(3-isopropyl-5-(piperidin-4-yl)-1H-indol-2-yl)-8-methyltetrazolo[1,5-a]pyridine]
> 3130	> 3130	1000 to 50000	Cc1cc2cc(-c3[nH]c4ccc(C5CCN(CC(=O)N(C)C)CC5)cc4c3C(C)C)cc(CC(C)C)n2n1 [Example 393, 2-(4-(2-(7-isobutyl-2-methylpyrazolo[1,5-a]pyridin-5-yl)-3-isopropyl-1H-indol-5-yl)piperidin-1-yl)-N,N-dimethylacetamide]
< 100	< 100	1000 to 50000	Cc1c(-c2[nH]c3ccc(C4CCN(C(=O)CCN5CCOCC5)CC4)cc3c2C(C)C)cn2nnnc2c1C [Example 619, 1-(4-(2-(7,8-dimethyltetrazolo[1,5-a]pyridin-6-yl)-3-isopropyl-1H-indol-5-yl)piperidin-1-yl)-3-morpholinopropan-1-one]
< 100	< 100	1000 to 50000	CCc1c(-c2ccnc3[nH]ncc23)[nH]c2ccc(C3CCN(C(=O)CNC)CC3)cc12 [Example 462, 1-(4-(3-ethyl-2-(1H-pyrazolo [3,4-b]pyridin-4-yl)-1H-indol-5-yl)piperidin-1-yl)-2-(methylamino)ethan-1-one]
100 to 1000	100 to 1000	> 50000	CC(=O)N1CCC(c2ccc3[nH]c(-c4ccnc5[nH]ncc45)c(C(C)C)c3c2)CC1 [Example 592, 1-(4-(3-isopropyl-2-(1H-pyrazolo[3,4-b]pyridin-4-yl)-1H-indol-5-yl)piperidin-1-yl)ethan-1-one]
100 to 1000	100 to 1000	1000 to 50000	CC(C)c1c(-c2ccc3occc3c2)[nH]c2ccc(C3CCNCC3)cc12 [Example 67, 2-(benzofuran-5-yl)-3-isopropyl-5-(piperidin-4-yl)-1H-indole]
100 to 1000	100 to 1000	1000 to 50000	CC(C)c1c(-c2ccc(Cl)c3[nH]ncc23)[nH]c2ccc(C3CCNCC3)cc12 [Example 106, 7-chloro-4-(3-isopropyl-5-(piperidin-4-yl)-1H-indol-2-yl)-1H-indazole]
100 to 1000	< 100	1000 to 50000	CCc1c(-c2ccnc3c(N)n[nH]c23)[nH]c2ccc(C3CCNCC3)cc12 [Example 238, 7-(3-ethyl-5-(piperidin-4-yl)-1H-indol-2-yl)-1H-pyrazolo[4,3-b]pyridin-3-amine]
< 100	100 to 1000	1000 to 50000	CC(C)c1c(-c2ccnc3cccnc23)[nH]c2ccc(C3CCNCC3)cc12 [Example 22, 4-(3-isopropyl-5-(piperidin-4-yl)-1H-indol-2-yl)-1,5-naphthyridine]
100 to 1000	1000 to 50000	1000 to 50000	COc1c[nH]c2nccc(-c3[nH]c4ccc(C5CCNCC5)cc4c3C)c12 [Example 213, 3-methoxy-4-(3-methyl-5-(piperidin-4-yl)-1H-indol-2-yl)-1H-pyrrolo[2,3-b]pyridine]
100 to 1000	100 to 1000	100 to 1000	Cc1cc(-c2[nH]c3ccc(C4CCN(C(=O)CN(C)C)CC4)cc3c2C(C)C)cc2nccn12 [Example 500, 2-(dimethylamino)-1-(4-(3-isopropyl-2-(5-methylimidazo[1,2-a]pyridin-7-yl)-1H-indol-5-yl)piperidin-1-yl)ethan-1-one]
